Tests used:
EcRA/USP = biological target: T1, EcRA/USP (Drosophila melanogaster, UniProt P34021); assay: EcRA isoform with USP (VP16CfUSP), (EcRE)5-ΔMTV-LUC in CHO cells; assay type: cell-based
T1 construct: The plasmid encodes a version of EcRA that includes 849 amino acids, and deletes the F domain; expressed in transfected cells; host or cells: CHO
T1 sequence (P34021 1-849 isoform P34021-2): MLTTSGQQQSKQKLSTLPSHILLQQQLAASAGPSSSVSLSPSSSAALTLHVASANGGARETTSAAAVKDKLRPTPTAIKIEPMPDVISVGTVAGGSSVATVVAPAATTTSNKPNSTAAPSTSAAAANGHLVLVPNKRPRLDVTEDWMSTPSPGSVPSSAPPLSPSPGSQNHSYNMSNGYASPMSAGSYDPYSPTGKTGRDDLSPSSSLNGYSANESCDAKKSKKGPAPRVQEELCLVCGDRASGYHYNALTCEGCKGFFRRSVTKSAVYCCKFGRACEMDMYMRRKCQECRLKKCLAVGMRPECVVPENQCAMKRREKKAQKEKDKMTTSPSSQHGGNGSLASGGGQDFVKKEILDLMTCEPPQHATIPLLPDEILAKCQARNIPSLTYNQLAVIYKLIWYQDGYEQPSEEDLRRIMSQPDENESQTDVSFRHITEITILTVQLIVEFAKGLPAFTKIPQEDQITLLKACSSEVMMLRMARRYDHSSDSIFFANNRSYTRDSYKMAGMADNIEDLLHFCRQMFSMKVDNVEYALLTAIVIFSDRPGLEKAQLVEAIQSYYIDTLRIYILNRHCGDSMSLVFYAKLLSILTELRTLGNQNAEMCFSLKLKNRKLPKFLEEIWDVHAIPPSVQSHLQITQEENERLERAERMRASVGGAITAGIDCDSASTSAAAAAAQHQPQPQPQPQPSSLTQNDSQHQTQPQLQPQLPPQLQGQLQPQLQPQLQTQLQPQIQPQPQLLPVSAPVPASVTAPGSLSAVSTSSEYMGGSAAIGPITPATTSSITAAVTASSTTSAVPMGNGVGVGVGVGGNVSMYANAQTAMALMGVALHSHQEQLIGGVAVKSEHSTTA
T1 sequence (O76202 192-472 partner): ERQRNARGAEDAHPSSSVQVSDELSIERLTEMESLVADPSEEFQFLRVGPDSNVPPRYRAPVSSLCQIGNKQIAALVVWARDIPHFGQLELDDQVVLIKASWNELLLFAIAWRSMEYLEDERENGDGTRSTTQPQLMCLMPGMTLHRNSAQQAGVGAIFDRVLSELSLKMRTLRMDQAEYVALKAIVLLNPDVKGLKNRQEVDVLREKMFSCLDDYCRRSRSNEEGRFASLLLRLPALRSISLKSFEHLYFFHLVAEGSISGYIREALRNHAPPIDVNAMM
Procedure: (§1) These experiments employed a mammalian cell culture system using Chinese hamster ovary cells (CHO) to evaluate the transcriptional function of Drosophila melanogaster EcR and USP using methods described previously (U.S. Patent Application Publication No: 2005/0049230; Henrich et al, 2003). Cells were seeded in 6-well polypropylene culture plates (Falcon) with 10^5 cells per well on the day prior to transfection. Transfection was subsequently performed using either calcium phosphate (Kitareewan et al., 1996, Mol. Biol. Cell, 7:1153-1196) or a GenePorter reagent (Gene Therapy Systems, Inc; San Diego, Calif.) following manufacturer's protocols. Each well received 1.25 μg of (EcRE)5-ΔMTV-CAT (five copies of the hsp27 EcRE inserted into an mouse mammary tumor virus (MTV) promoter upstream of the chloramphenicol acetyltransferase (CAT) gene) or (EcRE)5-ΔMTV-LUC (the same promoter attached to firefly luciferase), 1.25 μg of pCH111 (SV40 early promoter linked to the β-galactosidase gene) to normalize CAT activity, and 0.25 μg of each expression plasmid (EcR, FXR, RXR, USP) that was tested. The cells were incubated with plasmid DNA for seven hours and then washed with 1×PBS. Muristerone A (murA; Alexis Biochemicals) or 20-hydroxyecdysone (20E; Sigma) dissolved in ethanol to a concentration of 10 mM was diluted as necessary to the final assay concentration (FAC) in 2 ml of fresh incubation medium that was then applied to the cells. Similarly, JHIII (Sigma) was dissolved in dimethyl sulfoxide (DMSO) to a concentration of […] and diluted into the incubation medium to its final assay concentration (20, 40, 80, 160 μM). […] A corresponding volume of ethanol and DMSO were added to control cells for all experiments. For all experiments, the cells were allowed to incubate with the medium for 24 hours before collection and cell lysates were prepared by described methods (Kitareewan et al., 1996). Both β-galactosidase and CAT reporter activity were measured based on previously used methods (Kitareewan et al, 1996). Luciferase assays using luciferrin followed the specifications of the manufacturer.
(§2) Transcriptional activity, measured as ^14C-chloramphenicol counts (for measuring CAT activity) or relative luciferase activity (RLU) was quantified for each cell lysate. The counts were then normalized by adjusting for differences in β-galactosidase activity, since β-galactosidase expression is controlled by a constitutive promoter and provides an estimate of cell mass. Data were normalized as fold-induction based on differences in reporter gene activity between hormonally treated and control cells.

EcRB2/USP = biological target: T2, EcRB2/USP (Drosophila melanogaster, UniProt P34021); assay: EcRB2 isoform with USP (VP16CfUSP), (EcRE)5-ΔMTV-LUC in CHO cells; assay type: cell-based
T2 construct: The plasmid encodes a version of EcRB2 that includes 669 amino acids, and deletes the F domain; expressed in transfected cells; host or cells: CHO
T2 sequence (P34021 1-669 isoform P34021-3): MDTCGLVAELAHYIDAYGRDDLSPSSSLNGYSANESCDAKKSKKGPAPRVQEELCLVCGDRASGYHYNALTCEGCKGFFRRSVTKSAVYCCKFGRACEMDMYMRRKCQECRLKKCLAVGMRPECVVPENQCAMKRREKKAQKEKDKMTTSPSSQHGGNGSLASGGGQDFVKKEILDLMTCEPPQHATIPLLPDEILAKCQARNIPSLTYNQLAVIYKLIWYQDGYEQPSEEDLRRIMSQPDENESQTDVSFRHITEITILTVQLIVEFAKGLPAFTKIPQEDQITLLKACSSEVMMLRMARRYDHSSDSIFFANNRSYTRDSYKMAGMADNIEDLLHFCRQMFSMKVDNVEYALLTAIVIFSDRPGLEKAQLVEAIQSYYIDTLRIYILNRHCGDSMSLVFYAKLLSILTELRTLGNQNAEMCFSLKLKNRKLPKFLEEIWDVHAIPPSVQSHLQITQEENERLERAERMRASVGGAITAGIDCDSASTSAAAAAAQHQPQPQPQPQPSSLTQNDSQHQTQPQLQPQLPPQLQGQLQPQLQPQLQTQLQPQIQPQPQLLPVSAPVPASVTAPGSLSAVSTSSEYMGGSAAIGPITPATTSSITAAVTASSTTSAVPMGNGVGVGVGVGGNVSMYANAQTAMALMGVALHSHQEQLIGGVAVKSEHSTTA
T2 sequence (O76202 192-472 partner): T1 sequence (O76202 192-472 partner)
Procedure: as §1, §2

## CC(C)CC[C@@H](O)[C@](C)(O)[C@H]1CC[C@@]2(O)C3=CC(=O)[C@]4(O)C[C@@H](O)[C@@H](O)C[C@]4(C)[C@H]3[C@H](O)C[C@]12C [murA, muristerone A]
EcRA/USP; EcRA + VP16CfUSP, 1 μM murA
  induction by murA: 30-40 fold
EcRA/USP; EcRA/USP, 0.1 μM murA
  MurA (inducibility): + ((+) designates a change in transcriptional level that exceeds 2.5-fold)
EcRB2/USP; EcRB2 + VP16CfUSP, 1 μM murA
  induction by murA: 30-40 fold
EcRB2/USP; EcRB2/USP, 0.1 μM murA
  MurA (inducibility): + ((+) designates a change in transcriptional level that exceeds 2.5-fold)

## CC(C)(O)CC[C@@H](O)[C@](C)(O)[C@H]1CC[C@@]2(O)C3=CC(=O)[C@@H]4C[C@@H](O)[C@@H](O)C[C@]4(C)[C@H]3CC[C@]12C [20E, 20-hydroxyecdysone]
EcRA/USP; EcRA + VP16CfUSP, 10 μM 20E
  transcriptional response to 20E: consistent and discernible transcriptional response
EcRA/USP; EcRA/USP, 10 μM 20E
  20E (inducibility): + ((+) designates a change in transcriptional level that exceeds 2.5-fold)
EcRB2/USP; EcRB2 + VP16CfUSP, 10 μM 20E
  transcriptional response to 20E: consistent and discernible transcriptional response
EcRB2/USP; EcRB2/USP, 10 μM 20E
  20E (inducibility): + ((+) designates a change in transcriptional level that exceeds 2.5-fold)

## COC(=O)/C=C(\C)CC/C=C(\C)CC[C@H]1OC1(C)C [JHIII, juvenile hormone III]
EcRA/USP; EcRA + VP16CfUSP, 80 μM JHIII with 0.1 μM murA
  potentiation of murA response by JHIII: potentiated
EcRA/USP; EcRA/USP, 0.1 μM murA + 80 μM JHIII
  MurA + JHIII (JHIII potentiation): + ((+) indicates observed potentiation that exceeds 2-fold above the levels observed with ecdysteroid alone)
EcRB2/USP; EcRB2 + VP16CfUSP, 10 μM 20E plus JHIII
  potentiation of 20E response by JHIII: potentiated significantly
EcRB2/USP; EcRB2 + VP16CfUSP, 80 μM JHIII with 0.1 μM murA
  potentiation of murA response by JHIII: potentiated
EcRB2/USP; EcRB2/USP, 0.1 μM murA + 80 μM JHIII
  MurA + JHIII (JHIII potentiation): + ((+) indicates observed potentiation that exceeds 2-fold above the levels observed with ecdysteroid alone)
EcRB2/USP; EcRB2/USP, 10 μM 20E + 80 μM JHIII
  20E + JHIII (JHIII potentiation): + ((+) indicates observed potentiation that exceeds 2-fold above the levels observed with ecdysteroid alone)
